Experimental data reported in BigSolDB 2.1.

CCCCCCC1(CCCCCC)c2cc(Br)ccc2-c2ccc(Br)cc21
solubility (mole fraction)
Details	283.15 K	293.15 K	303.15 K	313.15 K	323.15 K
in 1,4-dioxane	–	0.0466	0.0801	0.113	0.17
in THF	0.0977	0.112	0.127	0.146	0.158
in acetonitrile	0.000305	0.000473	0.000684	0.000954	0.0012
in chloroform	0.0364	0.041	0.0483	0.0543	0.0613
in dichloromethane	0.0468	0.0633	0.0807	0.0987	0.118
in ethanol	0.00158	0.00182	0.00209	0.00233	0.00264
in ethyl acetate	0.0433	0.0613	0.0873	0.114	0.144
in isopropanol	0.000772	0.00117	0.00191	0.00293	0.00392
in methanol	0.000142	0.000189	0.000293	0.000427	0.000582
in n-butanol	0.00329	0.00586	0.00935	0.0127	0.0165
in n-hexane	0.0382	0.0578	0.0907	0.123	0.163
in toluene	0.0918	0.121	0.152	0.188	0.242
